In PMC8151276, “An Integrated Approach toward NanoBRET Tracers for Analysis of GPCR Ligand Engagement” (Molecules, 2021):

How the values were obtained:
Format in all cases: binding
[1] = target: T1, HRH2 (Homo sapiens, UniProt P25021); test: NanoBRET screen HiBiT-HRH2 in HEK293
T1 construct: purchased Promega (in-house HiBiT-GPCR construct library, NanoBRET)
Protocol: (§1) Each tracer candidate was screened across the entire library of HiBiT-GPCR constructs using NanoBRET as the detection modality. As depicted in Figure 4A, the specificity of interactions was evaluated through decrease in BRET due to competitive displacement of a bound tracer by excess parental compound. Each tracer was analyzed for binding to each HiBiT-GPCR fusion in the absence and in the presence of competing parental compound. Briefly, HEK293 cells were transfected with HiBiT-GPCR constructs diluted into promoterless DNA to reduce expression and maximize translocation to the cell surface. Each tracer candidate was then screened at concentrations of 1 μM and 0.1 μM across cells expressing these fusions. Cells were treated for 1.5 h with tracer either alone or in the presence of 20 μM competing parental compound (i.e., control). BRET was measured upon addition of purified LgBiT and subsequent complementation with HiBiT genetically fused to a GPCR. The specificity of interactions was assessed through a decrease in BRET signal due to competitive displacement of the bound tracer. To further gauge the robustness of these interactions, the fold response over the control (i.e., BRETtracer/BRETcontrol) was calculated. We chose a 1.5-fold response, which translates to ≥7-fold signal over noise as the minimal threshold required to score an interaction as positive. […]. Below we highlight the screening results obtained for our exemplary fluorescent tracers based on Clozapine, Amitriptyline and AZD1283.
(§2) HiBiT-GPCR DNA constructs were diluted in 10 mM Tris pH 8 to a final concentration of 0.01 μg/μL, arrayed in 96-well plates and stored at −20 °C. For transfection, HEK293 cells were suspended in Opti-MEM (without phenol red) supplemented with 2% fetal bovine serum (Seradigm) and 100 units/mL penicillin–streptomycin (Gibco) at a final concentration of 220,000 cells/mL and dispensed into white 96-well plates at 90 μL/well. Subsequent transfections and screens were carried using an Agilent Bravo Automated Liquid Handling Platform. First, the 96-well HiBiT DNA arrays were diluted 25-fold in Opti-MEM (without serum or phenol red) to a final concentration of 0.0004 μg/μL and 20 μL of the diluted DNAs were transferred into new 96-well plates. Next, promoterless carrier DNA (1 μg/μL) was diluted 25-fold (0.04 μg/μL) and then dispensed into the diluted arrays at 20 μL/well. Following brief mixing, Viafect transfection reagent (Promega) diluted 16-fold into Opti-MEM was dispensed into the plates at 40 μL/well. After mixing by pipetting, plates were incubated for 10 min on the pipetting station deck. The DNA-transfection reagent complexes were then added to plates containing cells. To facilitate the screen, 10 μL of DNA-transfection reagent complexes were added in duplicates to the top 4 and bottom 4 rows, resulting in two identical 48-well arrays per plate. Plates with transfected cells were incubated for 18–20 h at 37 °C/5% CO2. A screen of each tracer across the entire library using two different concentrations requires duplicate plates of transfected cells. Depending on the number of tracers being screened, transfections can be scaled up using the same ratios. The next day, for each tracer, four 20× screening solutions in tracer dilution buffer (Promega) were prepared: two duplicates at final concentration of 20 μM and two duplicates at a final concentration of 2 μM. A competing unmodified compound was added to one of each duplicate at a final concentration of 400 μM. The four resulting solutions were diluted 4-fold in Opti-MEM without serum or phenol red to generate 5× solutions (5 µM and 0.5 µM tracer +/− 100 μM competing compound). To screen the library, a BioTek MultiFlo FX liquid dispenser was used to dispense 22.5 µL of tracer solution to the top 4 rows and 22.5 µL tracer + competing compound solution to the 4 bottom rows. Plates were briefly mixed on an orbital shaker and incubated for 1.5 h at room temperature. […]

[2] = target: T2, NMUR2 (Homo sapiens, UniProt Q9GZQ4); test: NanoBRET screen HiBiT-NMUR2 in HEK293
T2 construct: purchased Promega (in-house HiBiT-GPCR construct library, NanoBRET)
Protocol: as §1, §2

[3] = target: T3, GALR3 (Homo sapiens, UniProt O60755); test: NanoBRET screen HiBiT-GALR3 in HEK293
T3 construct: purchased Promega (in-house HiBiT-GPCR construct library, NanoBRET)
T3 sequence (O60755 1-368): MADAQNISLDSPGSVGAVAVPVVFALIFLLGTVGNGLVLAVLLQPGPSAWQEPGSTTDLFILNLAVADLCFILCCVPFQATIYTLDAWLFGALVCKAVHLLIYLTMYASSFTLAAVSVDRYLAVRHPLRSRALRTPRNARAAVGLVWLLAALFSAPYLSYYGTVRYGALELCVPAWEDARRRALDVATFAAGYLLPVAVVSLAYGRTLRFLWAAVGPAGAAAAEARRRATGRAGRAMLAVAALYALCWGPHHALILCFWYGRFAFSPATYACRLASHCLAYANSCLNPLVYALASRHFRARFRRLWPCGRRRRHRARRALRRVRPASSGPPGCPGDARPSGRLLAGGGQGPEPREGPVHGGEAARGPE
Protocol: as §1, §2

[4] = target: T4, FZD5 (Homo sapiens, UniProt Q13467); test: NanoBRET screen HiBiT-FZD5 in HEK293
T4 construct: purchased Promega (in-house HiBiT-GPCR construct library, NanoBRET)
Protocol: as §1, §2

T2 sequence (Q9GZQ4 whole entry): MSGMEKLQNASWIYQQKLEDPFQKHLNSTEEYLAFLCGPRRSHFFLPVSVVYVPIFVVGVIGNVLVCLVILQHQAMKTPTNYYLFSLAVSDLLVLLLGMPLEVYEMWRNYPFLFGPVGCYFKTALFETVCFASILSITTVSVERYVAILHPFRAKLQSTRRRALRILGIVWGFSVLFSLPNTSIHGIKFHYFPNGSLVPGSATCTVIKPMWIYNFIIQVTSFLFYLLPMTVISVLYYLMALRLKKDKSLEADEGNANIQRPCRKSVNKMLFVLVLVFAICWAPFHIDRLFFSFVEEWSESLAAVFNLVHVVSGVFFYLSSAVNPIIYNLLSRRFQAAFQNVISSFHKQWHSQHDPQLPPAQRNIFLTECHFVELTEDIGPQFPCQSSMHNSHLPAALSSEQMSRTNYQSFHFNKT
T1 sequence (P25021 whole entry): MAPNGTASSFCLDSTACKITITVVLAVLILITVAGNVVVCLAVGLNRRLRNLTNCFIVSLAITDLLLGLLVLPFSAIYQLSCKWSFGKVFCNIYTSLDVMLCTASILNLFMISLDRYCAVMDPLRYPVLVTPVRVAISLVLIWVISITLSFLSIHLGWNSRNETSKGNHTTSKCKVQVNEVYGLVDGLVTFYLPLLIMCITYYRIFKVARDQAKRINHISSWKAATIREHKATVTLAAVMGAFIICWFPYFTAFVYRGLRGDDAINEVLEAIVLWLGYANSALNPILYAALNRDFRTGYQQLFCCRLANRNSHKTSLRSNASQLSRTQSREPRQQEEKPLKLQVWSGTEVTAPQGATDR
T4 sequence (Q13467 27-585): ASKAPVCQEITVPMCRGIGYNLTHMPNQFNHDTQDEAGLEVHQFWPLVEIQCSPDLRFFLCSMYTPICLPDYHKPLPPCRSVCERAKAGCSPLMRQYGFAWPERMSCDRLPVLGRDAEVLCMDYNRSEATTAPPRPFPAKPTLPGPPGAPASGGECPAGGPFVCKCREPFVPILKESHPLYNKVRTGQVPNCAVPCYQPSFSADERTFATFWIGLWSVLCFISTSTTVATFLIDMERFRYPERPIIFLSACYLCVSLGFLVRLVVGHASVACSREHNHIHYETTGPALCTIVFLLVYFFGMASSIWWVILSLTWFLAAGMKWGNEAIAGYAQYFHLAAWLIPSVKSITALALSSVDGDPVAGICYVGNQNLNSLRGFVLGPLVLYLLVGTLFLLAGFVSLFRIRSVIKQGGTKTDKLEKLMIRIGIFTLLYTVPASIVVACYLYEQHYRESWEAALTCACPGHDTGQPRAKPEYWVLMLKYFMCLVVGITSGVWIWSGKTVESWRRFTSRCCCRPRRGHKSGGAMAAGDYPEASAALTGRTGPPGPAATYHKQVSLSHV

| SMILES | NanoBRET Fold Response ([1]; HRH2, tracer 0.1μM) | NanoBRET Fold Response ([1]; HRH2, tracer 1μM) | NanoBRET Fold Response ([2]; NMUR2, tracer 0.1μM) | NanoBRET Fold Response ([2]; NMUR2, tracer 1μM) | NanoBRET Fold Response ([3]; GALR3, tracer 0.1μM) | NanoBRET Fold Response ([3]; GALR3, tracer 1μM) | NanoBRET Fold Response ([4]; FZD5, tracer 0.1μM) | NanoBRET Fold Response ([4]; FZD5, tracer 1μM) | further results |
| --- | --- | --- | --- | --- | --- | --- | --- | --- | --- |
| O=C(CCOCCOCCOCCOCCNC(=O)CCc1ccc2n1[B-](F)(F)[N+]1=C(c3ccc[nH]3)C=CC1=C2)NCCCN1CCN(C2=Nc3ccccc3Oc3ccc(Cl)cc32)CC1 [Loxapine-a-2-NB590] | 0.79 | 1.06 | 1.07 | 0.74 | 0.95 | 1.10 | 1.01 | 0.89 |  |
| CCCn1c(=O)c2[nH]c(-c3ccc(OCC(=O)NCCNC(=O)CCOCCNC(=O)c4ccc(CNC(=O)CCc5ccc6n5[B-](F)(F)[N+]5=C(c7ccc[nH]7)C=CC5=C6)cc4)cc3)nc2n(CCC)c1=O [XAC-3-NB590] | 0.82 | 1.15 | 1.11 | 0.89 | 1.01 | 1.04 | 1.13 | 0.95 |  |
| CN(C)CCC=C1c2ccccc2CCc2ccc(C(=O)NCCNC(=O)CCOCCOCCOCCOCCNC(=O)CCc3ccc4n3[B-](F)(F)[N+]3=C(c5ccc[nH]5)C=CC3=C4)cc21 [Amitriptyline-a-2-NB590] |  |  |  |  |  |  |  |  | NanoBRET Fold Response ([1]; tracer at 0.1μM): 1.00; NanoBRET Fold Response ([1]; tracer at 1μM): 0.99; NanoBRET Fold Response ([2]; tracer at 0.1μM): 1.00; NanoBRET Fold Response ([2]; tracer at 1μM): 1.02; NanoBRET Fold Response ([3]; tracer at 0.1μM): 0.98; NanoBRET Fold Response ([3]; tracer at 1μM): 1.04; NanoBRET Fold Response ([4]; tracer at 0.1μM): 1.01; NanoBRET Fold Response ([4]; tracer at 1μM): 0.97 |
| COc1ccccc1N1CCN(CCCCN2C(=O)c3ccc(CNC(=O)CCOCCOCCOCCOCCNC(=O)CCc4ccc5n4[B-](F)(F)[N+]4=C(c6ccc[nH]6)C=CC4=C5)cc3C2=O)CC1 [NAN-190-2-NB590] | 0.94 |  |  |  | 0.97 | 1.10 | 0.97 | 1.00 |  |
| O=C(CCc1ccc2n1[B-](F)(F)[N+]1=C(c3ccc[nH]3)C=CC1=C2)NCc1ccc(C(=O)NCCOCCOCCNCC(O)COc2cccc3ccccc23)cc1 (stereo not shown) [Propranolol-3-NB590] |  |  |  |  |  |  |  |  | NanoBRET Fold Response ([1]; HRH2, 0.1μM): 1.12; NanoBRET Fold Response ([1]; HRH2, 1μM): 0.97; NanoBRET Fold Response ([2]; NMUR2, 0.1μM): 1.06; NanoBRET Fold Response ([2]; NMUR2, 1μM): 1.08; NanoBRET Fold Response ([3]; GALR3, 0.1μM): 1.05; NanoBRET Fold Response ([3]; GALR3, 1μM): 0.91; NanoBRET Fold Response ([4]; FZD5, 0.1μM): 1.07; NanoBRET Fold Response ([4]; FZD5, 1μM): 1.02 |
| COc1ccccc1N1CCN(CCCCN2C(=O)c3ccc(CNC(=O)CCOCCNC(=O)c4ccc(CNC(=O)CCc5ccc6n5[B-](F)(F)[N+]5=C(c7ccc[nH]7)C=CC5=C6)cc4)cc3C2=O)CC1 [NAN-190-3-NB590] | 1.07 | 1.08 | 1.04 | 0.75 | 0.97 | 0.92 | 0.97 | 1.00 |  |
| O=C(CCc1ccc2n1[B-](F)(F)[N+]1=C(c3ccc[nH]3)C=CC1=C2)NCc1ccc(C(=O)NCCOCCC(=O)N[C@@H]2CC[C@@]3(O)[C@H]4Cc5ccc(O)c6c5[C@@]3(CCN4CC3CC3)[C@H]2O6)cc1 [Naltrexone-3-NB590] | 0.85 | 1.34 | 0.78 | 0.84 | 1.03 | 1.01 | 0.99 | 0.98 |  |
| CCOC(=O)c1cc(C#N)c(N2CCC(C(=O)NS(=O)(=O)Cc3ccccc3/C=C/C(=O)NCCNC(=O)CCc3ccc4n3[B-](F)(F)[N+]3=C(c5ccc[nH]5)C=CC3=C4)CC2)nc1C [AZD1283-1-NB590] |  |  |  |  |  |  |  |  | NanoBRET Fold Response ([1]; HRH2, 0.1μM): 0.90; NanoBRET Fold Response ([1]; HRH2, 1μM): 1.03; NanoBRET Fold Response ([2]; NMUR2, 0.1μM): 1.01; NanoBRET Fold Response ([2]; NMUR2, 1μM): 0.86; NanoBRET Fold Response ([3]; GALR3, 0.1μM): 0.91; NanoBRET Fold Response ([3]; GALR3, 1μM): 1.00; NanoBRET Fold Response ([4]; FZD5, 0.1μM): 1.07; NanoBRET Fold Response ([4]; FZD5, 1μM): 1.05 |
| COc1ccc2[nH]c(-c3ccc(CNC(=O)CCOCCOCCOCCOCCNC(=O)CCc4ccc5n4[B-](F)(F)[N+]4=C(c6ccc[nH]6)C=CC4=C5)cc3)c(CCNC(C)=O)c2n1 [AzomelatoninICO9-2-NB590] |  |  |  |  |  |  |  |  | NanoBRET Fold Response ([1]; 0.1μM tracer): 1.11; NanoBRET Fold Response ([1]; 1μM tracer): 1.07; NanoBRET Fold Response ([2]; 0.1μM tracer): 0.71; NanoBRET Fold Response ([2]; 1μM tracer): 0.99; NanoBRET Fold Response ([3]; 0.1μM tracer): 1.06; NanoBRET Fold Response ([3]; 1μM tracer): 1.08; NanoBRET Fold Response ([4]; 0.1μM tracer): 0.97; NanoBRET Fold Response ([4]; 1μM tracer): 0.93 |
| CC(C)N(CC[C@H](c1ccccc1)c1cc(CCNC(=O)CCOCCOCCOCCOCCNC(=O)CCc2ccc3n2[B-](F)(F)[N+]2=C(c4ccc[nH]4)C=CC2=C3)ccc1O)C(C)C [Tolterodine-2-NB590] | 1.06 | 0.82 | 1.31 | 1.07 | 0.76 | 0.78 | 0.87 | 1.07 |  |
| CN(CCC=C1c2ccccc2CCc2ccccc21)C(=O)CCOCCOCCOCCOCCNC(=O)CCc1ccc2n1[B-](F)(F)[N+]1=C(c3ccc[nH]3)C=CC1=C2 [Amitriptyline-e-2-NB590] |  |  |  |  |  |  |  |  | NanoBRET Fold Response ([1]; tracer at 1μM): 0.95; NanoBRET Fold Response ([4]; tracer at 1μM): 0.98 |
